One assay has as its target T1, human IRAK-4 (Homo sapiens, UniProt Q9NWZ3).
T1 construct: purchased Carna Biosciences 09-145
T1 sequence (Q9NWZ3 1-460): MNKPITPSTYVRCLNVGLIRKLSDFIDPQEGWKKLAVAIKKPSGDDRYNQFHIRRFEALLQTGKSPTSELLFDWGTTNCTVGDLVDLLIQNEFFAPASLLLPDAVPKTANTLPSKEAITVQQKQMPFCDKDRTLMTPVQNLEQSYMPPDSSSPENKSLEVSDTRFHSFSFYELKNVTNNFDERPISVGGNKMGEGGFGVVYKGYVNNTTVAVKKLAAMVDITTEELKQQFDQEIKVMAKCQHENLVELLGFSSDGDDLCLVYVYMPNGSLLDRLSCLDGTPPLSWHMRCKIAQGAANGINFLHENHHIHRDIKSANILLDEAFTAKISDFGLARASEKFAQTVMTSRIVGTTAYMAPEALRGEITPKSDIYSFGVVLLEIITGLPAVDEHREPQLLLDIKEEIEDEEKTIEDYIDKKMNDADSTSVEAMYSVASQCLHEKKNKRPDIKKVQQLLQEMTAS
Kind of assay: IC50 determination for human IRAK-4, radioactive filter plate assay. The following applies: RIP140 substrate, 1 μM ATP + [γ-33P]ATP, 30° C., 45 min; read-out: hIRAK-4 IC50. Type of assay: biochemical. How it is done: The IC50 value for IRAK-4 is determined in a radioactive filter plate assay. The principle of the assay consists in the measurement of incorporated ^33P into the RIP140 substrate upon phosphorylation by the enzyme IRAK-4 using [γ-^33P]ATP and ATP. Unincorporated ^33P is removed by loading the samples on a filter plate (using a harvester, PerkinElmer) and 6 subsequent washing steps. Incorporated ^33P in RIP140 is measured by a scintillation counter (Topcount, PerkinElmer) after addition of MicroScint™-20 (PerkinElmer, 6013621) to the filter plates.
5 μL of a water dilution series of test compound (starting from 20 μM or 6.6 μM highest concentration), from a 100% DMSO stock solution, 1/5 dilution, is added to the wells (final DMSO concentration of 1% in reaction assay). IRAK-4 (Carna Biosciences, 09-145) and RIP140 (SEQ ID1, cf. Table VII) are used at a final concentration of 10 ng/mL and 4 μM, respectively. The enzyme and substrate are diluted in 25 mM Tris pH 7.5, 0.025% Triton X-100, 5 mM MnCl2, and 2 mM DTT to a total volume of 11 μL. The reaction is started by addition of 9 μL of 1 μM ATP (Sigma, A6419-5G)+0.25 μCi [γ-^33P]ATP (PerkinElmer, NEG602K001MC), diluted in the same buffer as enzyme and substrate. The mixture is incubated at 30° C. for 45 min. The reaction is terminated by adding 25 μL of 150 mM phosphoric acid (VWR, 1.00573.1000). Samples are transferred to filter plates and incorporated radioactivity is measured using a scintillation counter.
(§1) 10 μM staurosporine (1% DMSO) is used as positive control (100% inhibition); vehicle (water+1% DMSO) as negative control (0% inhibition).

For another assay, the target named is T2, CDK2 (Homo sapiens, UniProt P24941).
T2 construct: purchased Carna Biosciences 04-103
Kind of assay: Kinase selectivity profiling (focused panel), radioactive filter plate assay: CDK2. Type of assay: biochemical. The following applies: Histone H1-derived peptide, 0.1 μM ATP, 60 min. How it is done:
The purpose of this assay is to determine the activity and selectivity of a compound of the invention on a selected range of human kinases which may result in undesirable side-effects when inhibited (Dy & Adjei 2013; Force & Kolaja 2011).
The IC50 value for off-target kinases is determined in radioactive filter plate assays. The principle of the assays consists in the measurement of incorporated ^33P into a peptide substrate upon phosphorylation by the kinase enzyme using [γ-^33P]ATP and ATP. Unincorporated ^33P is removed by loading the samples on a filter plate (using a harvester, PerkinElmer) and 6 subsequent washing steps. Incorporated ^33P in the peptide substrate is measured by a scintillation counter (Topcount, PerkinElmer) after addition of MicroScint™-20 (PerkinElmer, 6013621) to the filter plates.
5 μL of a water dilution series of test compound (starting from 20 μM or 6.6 μM highest concentration), from a 100% DMSO stock solution, 1/5 dilution, is added to the wells (final DMSO concentration of 1% in reaction assay). Enzyme and peptide substrate are used at optimized concentrations (cf. Table VI). The enzyme and substrate are diluted in assay buffer to a total volume of 11 μL. The reaction is started by addition of 9 μL of ATP+[γ-^33P]ATP, diluted in the same buffer as enzyme and substrate. The mixture is incubated at 30° C. The reaction is terminated by adding 25 μL of 150 mM phosphoric acid. Samples are transferred to filter plates and incorporated radioactivity is measured using a scintillation counter.
The incubation time, assay buffer composition, and concentrations of ATP, enzyme and substrate are reported in Table VI for example kinase off-target assays.
as §1

Regarding `N#Cc1ccc(-n2cnc3cc(OCCOCCO)c(NC4CCOCC4)nc32)nc1` [Compound 1, 6-[6-[2-(2-hydroxy-ethoxy)-ethoxy]-5-(tetrahydro-pyran-4-ylamino)-imidazo[4,5-b]pyridin-3-yl]-nicotinonitrile], the IC50 at human IRAK-4 is 6.35 nM; on CDK2 it was above 6670 nM.

For the compound `C[C@]1(O)CC[C@@H](Nc2nc3c(cc2OCCOCCO)ncn3-c2ccc(C#N)cn2)CC1` [Compound 12, 6-[6-[2-(2-hydroxyethoxy)ethoxy]-5-[((cis-1,4)-4-hydroxy-4-methylcyclohexyl)amino]imidazo[4,5-b]pyridin-3-yl]pyridine-3-carbonitrile], the figures for the IC50 on human IRAK-4 and on CDK2 were 0.95 nM and 944 nM, respectively.

Values taken from patent US10508111B2, “6-[5-amino-6-(2-ethoxyethoxy)-imidazo[4,5-B]pyridin-3-yl]-nicotinonitrile derivatives and their use as IRAK inhibitors” (GALAPAGOS NV, priority 2015, dated 2019).
